This assay relates to PBMCs from dogs immunised with CDV. Kind of assay: T-cell proliferation after in vitro stimulation of PBMC with peptide pools, tested with autologous APCs and single peptides. Format: cell-based, dog. To be noted: for reaction with peripheral blood mononuclear cells: dogs of various breeds immunised with CDV. As to the method:
An alternate strategy was used to increase the precursor frequency of specific T cells recognising the CDV peptides. Fresh PBMCs obtained from these hyperimmunised dogs were subjected to stimulation in vitro with pools of all 94 peptides for 30 minutes at 37° C. The cells were then washed to remove any excess peptides and cultured for 7 days. This population of T cells was then tested with autologous APCs with every single peptide as the antigen.
To confirm this observation, the same four dogs were bled again, five weeks after receiving the dose of killed virus. The PBMCs were stimulated in vitro with pools of either all 94 peptides or peptides 21-40 (because most of the activity was in this region) and after 7 days of culture the stimulated T cells were tested against individual peptides. Significant stimulatory indices were obtained with all peptides, confirming the above results. Four more dogs which received only one dose of 3 in 1 vaccine were tested using the in vitro stimulation method and all four dogs responded to the majority of peptides shown in Table 2.
Once again the same peptides and one additional peptide P32 were tested on cells from additional dogs.

The mark [1] stands for this setting: Table 1, Beagle Foxhound (Dog #18), hyperimmunised, PBMC stimulated with pool of all 94 peptides, 7 days culture.
[2] abbreviates: Table 1, Beagle Foxhound (Dog #19).
[3] abbreviates: Table 1, Beagle Foxhound (Dog #20).
Setting [4] is: Table 1, Beagle Foxhound (Dog #21).
Setting [5] is: Table 2, Beagle Foxhound (Dog #72), one dose of 3 in 1 vaccine.
Setting [6] is: Table 3, Kelpie Foxhound (Dog #125).
Where [7] appears, read: Table 2, Beagle Foxhound (Dog #71), one dose of 3 in 1 vaccine.

For the sequence “NLNAQAIQSLRTSLEQS (canine distemper virus; synthetic peptide from canine distemper virus fusion protein (CDV-F) designated peptide P37)”, the Stimulatory index is 6.9 under setting [1]; 10.9 under setting [2]; 8.2 under setting [3]; 26 under setting [4]; 1.7 under setting [5]; 2.5 under setting [6]. Further, the Stimulatory index by setting is: (Table 5, Border Collie) under 2; (Table 5, Fox Terrier) under 2; (Table 5, Grey hound) under 2; (Table 5, Kelpie Pointer) 2; (Table 5, Poodle Shitzu) under 2; (Table 5, Terrier Cross) 2.
Turning to “TSTIINQSPDKLLTFIA (canine distemper virus; synthetic peptide from canine distemper virus fusion protein (CDV-F) designated peptide P74)”, the “reaction with peripheral blood mononuclear cells” value is “react strongly”. The sequence also showed a Stimulatory index (Table 4, Beagle Foxhound #20) of 1.7. The Stimulatory index (Table 4, Beagle Foxhound #21) came out at 6.0. The Stimulatory index (Table 4, Poodle Shitzu) is reported as 4.0. In addition, the Stimulatory index (Table 5, Border Collie) is under 2. The Stimulatory index (Table 5, Fox Terrier) is listed as under 2. The same sequence displayed a Stimulatory index (Table 5, Grey hound) of under 2. This sequence also returned a Stimulatory index (Table 5, Kelpie Pointer) of under 2. The sequence also had a Stimulatory index (Table 5, Poodle Shitzu) of 4. For the same sequence, the Stimulatory index (Table 5, Terrier Cross) is listed as under 2.
As for GVALGVATAAQITAGIA [Peptide P34], under setting [6], the Stimulatory index came out at 2.1.
As for “TELLSIFGPSLRDPISA (canine distemper virus; synthetic peptide from canine distemper virus fusion protein (CDV-F) designated peptide P47)”, the Stimulatory index under setting [1] is given as 3.3; the Stimulatory index under setting [2] is given as 85.7; the Stimulatory index under setting [3] was determined as 2.9; the Stimulatory index under setting [4] was found to be 1.9; the Stimulatory index under setting [6] was determined as 2.7.
As for “QPSTELEETRTSRARHS (canine distemper virus; synthetic peptide from canine distemper virus fusion protein (CDV-F) designated peptide P4)”, the Stimulatory index by setting is: under setting [1], 4.9; under setting [2], under 2; under setting [3], 3.3; under setting [4], 4.6; (Table 5, Border Collie) 2; (Table 5, Fox Terrier) under 2. Also, the Stimulatory index (Table 5, Grey hound) is 2; the Stimulatory index (Table 5, Kelpie Pointer) is reported as 3.5; the Stimulatory index (Table 5, Poodle Shitzu) amounted to 44; the Stimulatory index (Table 5, Terrier Cross) was determined as 2.
As to “TRSRKQTSHRLKNIPVH (canine distemper virus; synthetic peptide from canine distemper virus fusion protein (CDV-F) designated peptide P10)”, the Stimulatory index runs as follows: under setting [1], 2.3; under setting [2], under 2; under setting [3], 3.2; under setting [4], 9.1; (Table 5, Border Collie) 3; (Table 5, Fox Terrier) 2.2. This sequence came in with a Stimulatory index (Table 5, Grey hound) of 2; a Stimulatory index (Table 5, Kelpie Pointer) of 2.4; a Stimulatory index (Table 5, Poodle Shitzu) of 50; a Stimulatory index (Table 5, Terrier Cross) of 2.1.
In the case of “SGRRQRRFAGVVLAGVA (canine distemper virus; synthetic peptide from canine distemper virus fusion protein (CDV-F) designated peptide P32)”, the Stimulatory index is, setting by setting: (Table 5, Border Collie) under 2; (Table 5, Fox Terrier) under 2; (Table 5, Grey hound) 2; (Table 5, Kelpie Pointer) under 2; (Table 5, Poodle Shitzu) under 2; (Table 5, Terrier Cross) under 2.
In the case of “EQSNKAIEEIREATQET (canine distemper virus; synthetic peptide from canine distemper virus fusion protein (CDV-F) designated peptide P39)”, under setting [6], the Stimulatory index was 2.9.
In turn, “IGTDNVHYKIMTRPSHQ (canine distemper virus; synthetic peptide from canine distemper virus fusion protein (CDV-F) designated peptide P22)” came in with a Stimulatory index under setting [5] of 2.6.
Turning to “KLLNSVLEPINQALTLM (canine distemper virus; synthetic peptide from canine distemper virus fusion protein (CDV-F) designated peptide P28)”, the Stimulatory index was determined as 2 under setting [7] and 1.9 under setting [6].
For the sequence “EPINQALTLMTKNVKPL (canine distemper virus; synthetic peptide from canine distemper virus fusion protein (CDV-F) designated peptide P29)”, the Stimulatory index is recorded as 3.5 under setting [1]; 42 under setting [2]; 4.4 under setting [3]; under 2 under setting [4]; 2 under setting [7]; 6 (Table 2, Beagle Foxhound (Dog #73), one dose of 3 in 1 vaccine). For the same sequence, the Stimulatory index reads like this: under setting [6], 3.6; (Table 5, Border Collie) under 2; (Table 5, Fox Terrier) under 2; (Table 5, Grey hound) under 2; (Table 5, Kelpie Pointer) under 2; (Table 5, Poodle Shitzu) 2. Besides, the Stimulatory index (Table 5, Terrier Cross) is recorded as 2.
In the case of “RHSTTSAQRSTHYDPRT (canine distemper virus; synthetic peptide from canine distemper virus fusion protein (CDV-F) designated peptide P6)”, the Stimulatory index by setting is: under setting [1], 2.5; under setting [2], under 2; under setting [3], 4; under setting [4], 5.1; (Table 5, Border Collie) 2; (Table 5, Fox Terrier) under 2. Further, the Stimulatory index reads like this: (Table 5, Grey hound) under 2; (Table 5, Kelpie Pointer) under 2; (Table 5, Poodle Shitzu) 38; (Table 5, Terrier Cross) under 2.
For “DESSCVFVSESAICSQN (canine distemper virus; synthetic peptide from canine distemper virus fusion protein (CDV-F) designated peptide P64)”, the “reaction with peripheral blood mononuclear cells” value is listed as “react strongly”. For the same sequence, the Stimulatory index (Table 4, Beagle Foxhound #19) came to 2.5. Besides, the Stimulatory index (Table 4, Beagle Foxhound #20) is listed as 2.5. The sequence further registered a Stimulatory index (Table 4, Poodle Shitzu) of 50.0. The sequence further showed a Stimulatory index (Table 5, Border Collie) of under 2. The same sequence had a Stimulatory index (Table 5, Fox Terrier) of under 2. This sequence also had a Stimulatory index (Table 5, Grey hound) of under 2. Where the note is “Table 5, Kelpie Pointer”, this sequence showed a Stimulatory index of under 2. The same sequence gave a Stimulatory index (Table 5, Poodle Shitzu) of 50. Under “Table 5, Terrier Cross”, the Stimulatory index was under 2.
Regarding “CIRGDTSSCARTLVSGT (canine distemper virus; synthetic peptide from canine distemper virus fusion protein (CDV-F) designated peptide P68)”, the Stimulatory index under setting [1] was determined as 6.6; the Stimulatory index under setting [2] is given as under 2; the Stimulatory index under setting [3] is on record as under 2; the Stimulatory index under setting [4] was 11.7; the Stimulatory index under setting [6] is recorded as 2.9; the Stimulatory index (Table 5, Border Collie) is reported as under 2. The Stimulatory index was under 2 (Table 5, Fox Terrier); under 2 (Table 5, Grey hound); under 2 (Table 5, Kelpie Pointer); 5 (Table 5, Poodle Shitzu); under 2 (Table 5, Terrier Cross).

The values are drawn from patent publication US7572454B2, “T helper cell epitopes” (priority 1999, dated 2009).
